# Reference: EP4257135A1, “BENZIMIDAZOLE DERIVATIVES FOR PULMONARY ARTERIAL HYPERTENSION” (Justus-Liebig-Universität Gießen, priority 2022, dated 2023)
# System: PAH-FBs
# Assay: Apoptosis by Cell Death Detection ELISAPLUS in PAH fibroblasts
# Type: cell-based, human
# Conditions: PAH-FBs isolated ex vivo; various concentrations; vs DMSO; 24 h
# Source text: Diese Untersuchungen führten zu der Erkenntnis, dass die epigenetische Regulation der entwicklungsbedingten TF-Expression in der Lunge durch Modulation der EP300/CREBBP-Funktion rückgängig gemacht werden kann. Die Wirkung des niedermolekularen Inhibitors (Substanz, Wirkstoff) SGC-CBP30 auf die Proliferation von Gefäßzellen, die Apoptose sowie die Gen- und Proteinexpression wurde mit Hilfe geeigneter Assays nach der Transfektion untersucht. Nachdem Zellen zur Subkonfluenz gewachsen sind, wurde ihnen mit steigenden Konzentrationen der selektive EP300-Inhibitor SGC-CBP30 (Sigma, Katalognummer: SML1133) hinzugefügt. Die aus PAH-Patienten isolierten FBs wurden also mit dem isoformselektiven HAT-Inhibitor SGC-CBP30 behandelt. Gleichzeitig wurde den Zellen das Lösungsmittel DMSO (Sigma) mit entsprechenden Konzentrationen hinzugefügt. […]
# • A: PAH-FBs wurden mit siRNAs (siP300) behandelt, die auf EP300 abzielen (n=3), um die genspezifische funktionelle Rolle von EP300 bei der Hyperproliferation ex vivo 48 Stunden nach der Transfektion zu untersuchen. […] Skalenbalken: 50 µm. • E: Die Wirkung der P300-Inhibition (200 µM) auf den Gefäßumbau wurde durch Quantifizierung der prozentualen medialen Wanddicke in den mit dem EP300/CREBBP-Inhibitor SGC-CBP30 inkubierten PCLS im Vergleich zu den mit DMSO inkubierten Kontrollen bewertet. […]
smiles,measurement,value
"COc1ccc(CCc2nc3cc(-c4c(C)noc4C)ccc3n2C[C@H](C)N2CCOCC2)cc1Cl [SGC-CBP30, 2-[2-(3-Chloro-4-methoxyphenyl)ethyl]-5-(3,5-dimethyl-1,2-oxazol-4-yl)-1-[(S)-2-(morpholin-4-yl)propyl]-1H-benzimidazole]",Apoptoserate,schwächte den hyperproliferativen Phänotyp und die Apoptoserate von PAH-FBs und PAH-SMCs deutlich ab
